Experimental data as given in US20260285850A1, “SUBSTITUTED OXAZOLIDINONES AND IMIDAZOLINONES AS HERBICIDES” (FMC CORPORATION, priority 2023, published 2026).

Assays:
Format in all cases: in vivo
[1] = test system: barnyardgrass (Echinochloa crus-galli); assay: Test A preemergence soil spray, visual injury rating 0-100; conditions: 10 days, 0 = no effect, 100 = complete control
Method in brief: (§1)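 Compound in a non-phytotoxic, surfactant-containing solvent is applied either as a directed soil spray before seedlings emerge or onto emerged plants 2-10 cm tall; pots hold a loam-sand blend. Plants grow 10 days under greenhouse conditions and are rated by eye against untreated controls (0 no effect, 100 complete control).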

[2] = test system: blackgrass (Alopecurus myosuroides); assay: as above; conditions: 10 days, 0 = no effect, 100 = complete control
Method in brief: as §1

corn (Zea mays) [3] = assay: as above; conditions: 10 days, 0 = no effect, 100 = complete control
Method in brief: as §1

[4] = test system: green foxtail (Setaria viridis); assay: as above; conditions: 10 days, 0 = no effect, 100 = complete control
Method in brief: as §1

kochia (Bassia scoparia) [5] = assay: as above; conditions: 10 days, 0 = no effect, 100 = complete control
Method in brief: as §1

[6] = test system: oat, wild (wild oat, Avena fatua); assay: as above; conditions: 10 days, 0 = no effect, 100 = complete control
Method in brief: as §1

[7] = test system: palmer (palmer amaranth, palmer pigweed, Amaranthus palmeri); assay: as above; conditions: 10 days, 0 = no effect, 100 = complete control
Method in brief: as §1

[8] = test system: ryegrass, Italian (italian ryegrass, Lolium multiflorum); assay: as above; conditions: 10 days, 0 = no effect, 100 = complete control
Method in brief: as §1

soybean (Glycine max) [9] = assay: as above; conditions: 10 days, 0 = no effect, 100 = complete control
Method in brief: as §1

[10] = test system: wheat (Triticum aestivum); assay: as above; conditions: 10 days, 0 = no effect, 100 = complete control
Method in brief: as §1

[11] = test system: barnyardgrass (Echinochloa crus-galli); assay: Test A postemergence application, visual injury rating 0-100; conditions: Postemergence, 10 days, 0 is no effect, 100 is complete control
Method in brief: as §1

[12] = test system: blackgrass (Alopecurus myosuroides); assay: as above; conditions: Postemergence, 10 days, 0 is no effect, 100 is complete control
Method in brief: as §1

corn (Zea mays) [13] = assay: as above; conditions: Postemergence, 10 days, 0 is no effect, 100 is complete control
Method in brief: as §1

[14] = test system: galium (catchweed bedstraw, Galium aparine); assay: as above; conditions: Postemergence, 10 days, 0 is no effect, 100 is complete control
Method in brief: as §1

[15] = test system: green foxtail (Setaria viridis); assay: as above; conditions: Postemergence, 10 days, 0 is no effect, 100 is complete control
Method in brief: as §1

[16] = test system: horseweed (Erigeron canadensis); assay: as above; conditions: Postemergence, 10 days, 0 is no effect, 100 is complete control
Method in brief: as §1

kochia (Bassia scoparia) [17] = assay: as above; conditions: Postemergence, 10 days, 0 is no effect, 100 is complete control
Method in brief: as §1

[18] = test system: oat, wild (wild oat, Avena fatua); assay: as above; conditions: Postemergence, 10 days, 0 is no effect, 100 is complete control
Method in brief: as §1

[19] = test system: palmer (palmer amaranth, palmer pigweed, Amaranthus palmeri); assay: as above; conditions: Postemergence, 10 days, 0 is no effect, 100 is complete control
Method in brief: as §1

[20] = test system: ragweed (common ragweed, Ambrosia artemisiifolia); assay: as above; conditions: Postemergence, 10 days, 0 is no effect, 100 is complete control
Method in brief: as §1

[21] = test system: ryegrass, Italian (italian ryegrass, Lolium multiflorum); assay: as above; conditions: Postemergence, 10 days, 0 is no effect, 100 is complete control
Method in brief: as §1

soybean (Glycine max) [22] = assay: as above; conditions: Postemergence, 10 days, 0 is no effect, 100 is complete control
Method in brief: as §1

[23] = test system: wheat (Triticum aestivum); assay: as above; conditions: Postemergence, 10 days, 0 is no effect, 100 is complete control
Method in brief: as §1

[24] = test system: barnyardgrass (Echinochloa crusgalli); assay: Test B flooded paddy test, visual plant response rating 0-100; conditions: 250 g ai/ha, Flood, applied to paddy water, evaluated after 13 days
Method in brief: (§2)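 Visual scores versus untreated controls were recorded 13 days after treatment of greenhouse-held plants. At the 2-leaf stage, pots were flooded 3 cm above the soil surface and compounds added straight to the water.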

[25] = test system: ducksalad (Heteranthera limosa); assay: as above; conditions: 250 g ai/ha, Flood, applied to paddy water, evaluated after 13 days
Method in brief: as §2

rice (Oryza sativa) = assay: as above; conditions: 250 g ai/ha, Flood, applied to paddy water, evaluated after 13 days
Method in brief: as §2

[26] = test system: sedge, umbrella (small-flower umbrella sedge, Cyperus difformis); assay: as above; conditions: 250 g ai/ha, Flood, applied to paddy water, evaluated after 13 days
Method in brief: as §2

CCCOC(=O)C1C=CC(NC(=O)C2(C)CN(c3cc(F)cc(F)c3)C(=O)O2)C1 (centres unmarked) [Compound 34]
Barnyardgrass plant response rating (0 to 100 scale) ([1]; 125 g ai/ha): 100 | Barnyardgrass plant response rating (0 to 100 scale) ([1]; 500 g ai/ha): 100 | Blackgrass plant response rating (0 to 100 scale) ([2]; 125 g ai/ha): 90 | Blackgrass plant response rating (0 to 100 scale) ([2]; 500 g ai/ha): 100 | Corn plant response rating (0 to 100 scale) (corn (Zea mays) [3]; 125 g ai/ha): 90 | Corn plant response rating (0 to 100 scale) (corn (Zea mays) [3]; 500 g ai/ha): 100 | Foxtail, Green plant response rating (0 to 100 scale) ([4]; 125 g ai/ha): 100 | Foxtail, Green plant response rating (0 to 100 scale) ([4]; 500 g ai/ha): 100 | Kochia plant response rating (0 to 100 scale) (kochia (Bassia scoparia) [5]; 125 g ai/ha): 90 | Kochia plant response rating (0 to 100 scale) (kochia (Bassia scoparia) [5]; 500 g ai/ha): 90 | Oat, Wild plant response rating (0 to 100 scale) ([6]; 125 g ai/ha): 90 | Oat, Wild plant response rating (0 to 100 scale) ([6]; 500 g ai/ha): 90 | Amaranth, Palmer plant response rating (0 to 100 scale) ([7]; 125 g ai/ha): 90 | Amaranth, Palmer plant response rating (0 to 100 scale) ([7]; 500 g ai/ha): 100 | Ryegrass, Italian plant response rating (0 to 100 scale) ([8]; 125 g ai/ha): 100 | Ryegrass, Italian plant response rating (0 to 100 scale) ([8]; 500 g ai/ha): 100 | Soybean plant response rating (0 to 100 scale) (soybean (Glycine max) [9]; 125 g ai/ha): 70 | Soybean plant response rating (0 to 100 scale) (soybean (Glycine max) [9]; 500 g ai/ha): 80 | Wheat plant response rating (0 to 100 scale) ([10]; 125 g ai/ha): 90 | Wheat plant response rating (0 to 100 scale) ([10]; 500 g ai/ha): 100 | Barnyardgrass plant response rating (0 to 100 scale) ([11]; 125 g ai/ha): 100 | Barnyardgrass plant response rating (0 to 100 scale) ([11]; 500 g ai/ha): 100 | Blackgrass plant response rating (0 to 100 scale) ([12]; 125 g ai/ha): 90 | Blackgrass plant response rating (0 to 100 scale) ([12]; 500 g ai/ha): 100 | Corn plant response rating (0 to 100 scale) (corn (Zea mays) [13]; 125 g ai/ha): 100 | Corn plant response rating (0 to 100 scale) (corn (Zea mays) [13]; 500 g ai/ha): 100 | Galium plant response rating (0 to 100 scale) ([14]; 125 g ai/ha): 80 | Galium plant response rating (0 to 100 scale) ([14]; 500 g ai/ha): 80 | Foxtail, Green plant response rating (0 to 100 scale) ([15]; 125 g ai/ha): 90 | Foxtail, Green plant response rating (0 to 100 scale) ([15]; 500 g ai/ha): 90 | Horseweed plant response rating (0 to 100 scale) ([16]; 125 g ai/ha): 90 | Horseweed plant response rating (0 to 100 scale) ([16]; 500 g ai/ha): 90 | Kochia plant response rating (0 to 100 scale) (kochia (Bassia scoparia) [17]; 125 g ai/ha): 70 | Kochia plant response rating (0 to 100 scale) (kochia (Bassia scoparia) [17]; 500 g ai/ha): 70 | Oat, Wild plant response rating (0 to 100 scale) ([18]; 125 g ai/ha): 100 | Oat, Wild plant response rating (0 to 100 scale) ([18]; 500 g ai/ha): 100 | Amaranth, Palmer / Pigweed, Palmer plant response rating (0 to 100 scale) ([19]; 125 g ai/ha): 80 | Amaranth, Palmer / Pigweed, Palmer plant response rating (0 to 100 scale) ([19]; 500 g ai/ha): 100 | Ragweed plant response rating (0 to 100 scale) ([20]; 125 g ai/ha): 70 | Ragweed plant response rating (0 to 100 scale) ([20]; 500 g ai/ha): 80 | Ryegrass, Italian plant response rating (0 to 100 scale) ([21]; 125 g ai/ha): 80 | Ryegrass, Italian plant response rating (0 to 100 scale) ([21]; 500 g ai/ha): 90 | Soybean plant response rating (0 to 100 scale) (soybean (Glycine max) [22]; 125 g ai/ha): 70 | Soybean plant response rating (0 to 100 scale) (soybean (Glycine max) [22]; 500 g ai/ha): 80 | Wheat plant response rating (0 to 100 scale) ([23]; 125 g ai/ha): 70 | Wheat plant response rating (0 to 100 scale) ([23]; 500 g ai/ha): 80 | Plant response rating, Barnyardgrass (0 to 100 scale, 0 is no effect and 100 is complete control) [24]: 90 | Plant response rating, Ducksalad (0 to 100 scale, 0 is no effect and 100 is complete control) [25]: 75 | Plant response rating, Rice (0 to 100 scale, 0 is no effect and 100 is complete control) (rice (Oryza sativa)): 10 | Plant response rating, Sedge, Umbrella (0 to 100 scale, 0 is no effect and 100 is complete control) [26]: 75
